What all share (type): physicochemical
Series [1] can be described thus: Stability at 40° C./75% RH for 1 week. The following applies: 40° C. and 75% RH. On the procedure:
The humid environment was generated with saturated sodium chloride in water in a sealed container. After one week, the sample appeared pale-yellow upon inspection.
The one-week stability at 75% RH was also tested. In this experiment, 12 mg of the dried crystalline freebase from MeOH were weighted in a 4 mL vial and placed in a 20 mL vial set at 40° C. and 75% RH for 1 week. The humid environment was generated with saturated sodium chloride in water in a sealed container.
The one-week stability at 75% RH was also tested. In this experiment, 12 mg of the crystalline freebase from MeOH was weighted in a 4 mL vial and placed in a 20 mL vial set at 40° C. and 75% RH for 1 week. The humid environment was generated with saturated sodium chloride in water in a sealed container.

Series [2] in a line: Physical stability by XRPD upon drying at 50° C. under vacuum and exposure to >95% RH. On the procedure:
X-Ray Powder Diffraction (XRPD). XRPD was performed using a Rigaku MiniFlex 600 in reflection mode (i.e., Bragg-Brentano geometry). Samples were prepared on Si zero-return wafers.
XRPD analysis was done in three stages. XRPD of the wet cake was done for all samples where solids were observed.
The solids were then exposed to >95% RH overnight. This humid environment was produced by placing a beaker of saturated potassium sulfate in water in a sealed container at RT. The materials exposed to these conditions were evaluated by XRPD, and their patterns were compared to those produced before.
The pattern FF-B was dried at 50° C. under vacuum for 3 h after filtration for further XRPD analysis. The solids were then exposed to >95% RH overnight. This humid environment was produced by placing a beaker of saturated potassium sulfate in water in a sealed container at RT. The materials exposed to these conditions were evaluated by XRPD, and their patterns were compared to those of the crystalline freebase along each step.

A short description of series [3]: Forced degradation study of compound S-D1 (chiral HPLC). On the procedure: Sample solution stock was prepared by weighing 501.53 mg of compound S-D1 to a 100 mL volumetric flask, dissolving by ultrasonic in 50 mL of diluent 2, diluting to volume with diluent 2, and mixing well.
Unstressed sample solution was prepared by weighing 50.83 mg of compound S-D1 into a 100 mL volumetric flask, dissolving by ultrasonic in 50 mL of diluent 2, diluting to volume with diluent 2, and mixing well.
Sample solution for pH=4.0 solution stability was prepared as follows. 50.79 mg of compound S-D1 were weighed into a 100 mL volumetric flask, dissolved by ultrasonic in 50 mL of pH=4.0 50 mM sodium citrate buffer (see above), diluted to volume with pH=4.0 50 mM sodium citrate buffer, and mixed well.
Sample solution for pH=5.0 solution stability was prepared as follows. 50.66 mg of the compound of Formula I were weighed into a 100 mL volumetric flask, dissolved by ultrasonic in 50 mL of pH=5.0 50 mM sodium citrate buffer (see above), diluted to volume with 50 mL of pH=5.0 50 mM sodium citrate buffer and mixed well.
Sample solution for pH=7.0 solution stability was prepared as follows. 50.78 mg of compound S-D1 and 680.42 mg KH2PO4 were weighed into a 100 mL volumetric flask, dissolved by ultrasonic in 50 mL of diluent 1, transferred 29.1 mL of the 0.1N NaOH (see above), diluted to volume with diluent 1, and mixed well.
Acid degradation (1N HCl at RT). 3 mL of the sample stock solution (see above) into an 8 mL vial, added 3 mL of 2N HCl solution, and mixed well. Samples were prepared in quadruplicate and kept at room temperature (RT). At the sampling time point, 1 mL of the sample was transferred into a 5 mL volumetric flask, neutralized with 0.5 mL of […], diluted to volume with diluent 2, and mixed well.
Basic degradation (0.15N NaOH at RT). 3 mL of the sample stock solution (see above) into an 8 mL vial, added 3 mL of 0.3N NaOH solution, and mixed well. Samples were prepared in quadruplicate and kept at room temperature (RT). At the sampling time point, 1 mL of the sample was transferred into a 5 mL volumetric flask, neutralized with 0.5 mL of […], diluted to volume with diluent 2, and mixed well.
Thermal stress degradation (50° C. for solid). Approximately 150 mg of compound S-D1 were weighed into an 8 mL vial. Multiple samples were prepared and placed in an oven at 50° C. At the sampling time points, each of the 50.57 mg, 50.84 mg, and 50.84 mg samples were transferred into their respective 100 mL volumetric flasks, dissolved by ultrasonic in 50 mL of diluent 2, diluted to volume with diluent 2, and mixed well.
Solution Stability. The study was performed according to the conditions outlined in Table 15 using sample solution for pH=4.0 solution stability, sample solution for pH=5.0 solution stability, and sample solution for pH=7.0 solution stability (see above).

Setting [4] is: Acid Hydrolysis, 1N HCl RT, 0 h.
Setting [5] is: Acid Hydrolysis, 1N HCl RT, 1 d.
[6] abbreviates: Acid Hydrolysis, 1N HCl RT, 2 d.
[7] abbreviates: Acid Hydrolysis, 1N HCl RT, 3 d.
Where [8] appears, read: Base Hydrolysis, 0.15 N NaOH RT, 0 h.
Where [9] appears, read: Base Hydrolysis, 0.15 N NaOH RT, 1 h.
Setting [10] is: Solution Stability, pH = 4.0, 50 mM Sodium citrate buffer at RT, 0 h.
The mark [11] stands for this setting: Solution Stability, pH = 4.0, 50 mM Sodium citrate buffer at RT, 1 d.
The mark [12] stands for this setting: Solution Stability, pH = 4.0, 50 mM Sodium citrate buffer at RT, 2 d.
The mark [13] stands for this setting: Solution Stability, pH = 4.0, 50 mM Sodium citrate buffer at RT, 3 d.
Where [14] appears, read: Solution Stability, pH = 5.0 50 mM Sodium citrate buffer at RT, 0 h.
[15] abbreviates: Solution Stability, pH = 5.0 50 mM Sodium citrate buffer at RT, 1 d.
Where [16] appears, read: Solution Stability, pH = 5.0 50 mM Sodium citrate buffer at RT, 2 d.
The mark [17] stands for this setting: Solution Stability, pH = 5.0 50 mM Sodium citrate buffer at RT, 3 d.
The mark [18] stands for this setting: Solution Stability, pH = 7.0 Phosphate buffer at RT, 0 h.
The mark [19] stands for this setting: Solution Stability, pH = 7.0 Phosphate buffer at RT, 1 d.
[20] abbreviates: Solution Stability, pH = 7.0 Phosphate buffer at RT, 2 d.
Setting [21] is: Solution Stability, pH = 7.0 Phosphate buffer at RT, 3 d.

The text below walks through data of patent US11767330B2, “Citrate salt, pharmaceutical compositions, and methods of making and using the same” (Foghorn Therapeutics Inc., priority 2021, dated 2023).

Regarding `COc1cc(-c2cn(C)c(=O)c3cnc(N4CCC4)cc23)cc(OC)c1CN1CCC(CN2CCC3(CC2)CN(c2ccc4c(c2)C(=O)N([C@@H]2CCC(=O)NC2=O)C4)C3)CC1` [crystal pattern FF-A], in series [1], the XRPD after storage entry is “converted to compound R-D1, crystal pattern FF-B”.
In the case of `COc1cc(-c2cn(C)c(=O)c3cnc(N4CCC4)cc23)cc(OC)c1CN1CCC(CN2CCC3(CC2)CN(c2ccc4c(c2)C(=O)N([C@@H]2CCC(=O)NC2=O)C4)C3)CC1.O=C(O)CC(O)(CC(=O)O)C(=O)O` [citrate-A], the “physical stability (XRPD) upon drying at 50° C. under vacuum and exposure to >95% RH” value in series [2] was “became amorphous after drying and exposure to RH”.
For the molecule `COc1cc(-c2cn(C)c(=O)c3cnc(N4CCC4)cc23)cc(OC)c1CN1CCC(CN2CCC3(CC2)CN(c2ccc4c(c2)C(=O)N([C@H]2CCC(=O)NC2=O)C4)C3)CC1` [S-D1], the “% Degradation” value in series [3] (setting [4]) worked out at 0.002%; in series [3] (setting [5]), 0.005%; in series [3] (setting [6]) it was 0.011%; in series [3] (setting [7]) it was 0.016%; in series [3] (setting [8]) it was 18.260%; in series [3] (setting [9]) it was 52.210%. For the same molecule, the “% Degradation” value in series [3] (setting [10]) is 0.098%; in series [3] (setting [11]), 0.139%; in series [3] (setting [12]), 0.301%; in series [3] (setting [13]), 0.482%; in series [3] (setting [14]), 0.648%; in series [3] (setting [15]) it was 1.038%. Moreover, the “% Degradation” value in series [3] (setting [16]) amounted to 1.407%; in series [3] (setting [17]), 2.002%; in series [3] (setting [18]), 10.732%; in series [3] (setting [19]), 18.922%; in series [3] (setting [20]), 27.551%; in series [3] (setting [21]), 35.103%. For the same molecule, the “% Degradation” value in series [3] (Thermal, 50° C. (solid), 1 d) is 0.178%; in series [3] (Thermal, 50° C. (solid), 3 d), 0.331%; in series [3] (Thermal, 50° C. (solid), 7 d), 0.380%. Besides, the “Area % (R-D1)” value is 0.825% in series [3] (setting [4]); 0.828% in series [3] (setting [5]); 0.834% in series [3] (setting [6]); 0.839% in series [3] (setting [7]); 19.083% in series [3] (setting [8]); 53.033% in series [3] (setting [9]). Also, the “Area % (R-D1)” value in series [3] (setting [10]) turned out to be 0.921%; in series [3] (setting [11]), 0.962%; in series [3] (setting [12]) it was 1.124%; in series [3] (setting [13]) it was 1.305%; in series [3] (setting [14]), 1.471%; in series [3] (setting [15]) it was 1.861%. The “Area % (R-D1)” value in series [3] (setting [16]) was 2.230%; in series [3] (setting [17]), 2.825%; in series [3] (setting [18]) it was 11.555%; in series [3] (setting [19]), 19.745%; in series [3] (setting [20]) it was 28.374%; in series [3] (setting [21]), 35.926%. The “Area % (R-D1)” value in series [3] (Thermal, 50° C. (solid), 1 d) is reported as 1.001%; in series [3] (Thermal, 50° C. (solid), 3 d), 1.154%; in series [3] (Thermal, 50° C. (solid), 7 d), 1.203%; in series [3] (Unstressed), 0.823%. For the same molecule, the “Area % (S-D1)” value in series [3] (setting [4]) came out at 99.176%; in series [3] (setting [5]) it was 99.172%; in series [3] (setting [6]) it was 99.166%; in series [3] (setting [7]), 99.161%; in series [3] (setting [8]), 80.917%; in series [3] (setting [9]), 46.967%. Also, the “Area % (S-D1)” value turned out to be 99.079% in series [3] (setting [10]); 99.038% in series [3] (setting [11]); 98.876% in series [3] (setting [12]); 98.695% in series [3] (setting [13]); 98.529% in series [3] (setting [14]); 98.139% in series [3] (setting [15]). Besides, the “Area % (S-D1)” value in series [3] (setting [16]) is reported as 97.770%; in series [3] (setting [17]) it was 97.175%; in series [3] (setting [18]), 88.445%; in series [3] (setting [19]), 80.255%; in series [3] (setting [20]) it was 71.626%; in series [3] (setting [21]), 64.074%. Moreover, the “Area % (S-D1)” value in series [3] (Thermal, 50° C. (solid), 1 d) is on record as 98.999%; in series [3] (Thermal, 50° C. (solid), 3 d), 98.847%; in series [3] (Thermal, 50° C. (solid), 7 d), 98.797%; in series [3] (Unstressed) it was 99.177%.
